In patent publication US8551991B2, “1,2,3,4-tetrahydroquinoxaline derivative having glucocorticoid receptor binding activity” (Santen Pharmaceutical Co., Ltd., priority 2006, dated 2013) one finds inhibition data, which are given here for 36 compounds.

The target of the experiment is T1, Recombinant human GR (Homo sapiens, UniProt P04150).
T1 construct: purchased Invitrogen P2816
T1 sequence (P04150 1-777): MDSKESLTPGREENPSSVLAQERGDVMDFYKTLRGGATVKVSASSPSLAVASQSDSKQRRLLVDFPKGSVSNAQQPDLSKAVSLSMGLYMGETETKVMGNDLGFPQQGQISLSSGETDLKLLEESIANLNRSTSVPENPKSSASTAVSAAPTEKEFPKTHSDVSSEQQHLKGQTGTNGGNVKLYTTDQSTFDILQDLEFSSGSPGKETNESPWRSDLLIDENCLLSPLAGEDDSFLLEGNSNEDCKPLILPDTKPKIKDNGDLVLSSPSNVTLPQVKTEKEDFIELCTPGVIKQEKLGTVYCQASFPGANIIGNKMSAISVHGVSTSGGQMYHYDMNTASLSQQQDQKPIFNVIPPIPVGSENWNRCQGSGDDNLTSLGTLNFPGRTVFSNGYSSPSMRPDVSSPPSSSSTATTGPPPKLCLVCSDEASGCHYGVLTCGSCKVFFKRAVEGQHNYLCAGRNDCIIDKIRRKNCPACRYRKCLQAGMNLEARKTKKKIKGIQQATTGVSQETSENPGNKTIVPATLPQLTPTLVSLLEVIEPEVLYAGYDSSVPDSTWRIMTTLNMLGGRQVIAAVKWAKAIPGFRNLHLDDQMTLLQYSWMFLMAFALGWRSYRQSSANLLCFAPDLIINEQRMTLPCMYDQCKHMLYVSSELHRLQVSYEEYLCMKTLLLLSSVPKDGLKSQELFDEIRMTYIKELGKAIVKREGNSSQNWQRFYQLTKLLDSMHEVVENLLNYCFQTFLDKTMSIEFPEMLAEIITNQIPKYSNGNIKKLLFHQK
Kind of experiment: GR competitor assay by fluorescence polarization (binding activity to glucocorticoid receptor). As to conditions: 20 μM test compound solution, 25 μL per well plus 12.5 μL each of 4×GS1 and 4×GR solution; Fluormone GS1 ligand; positive control 2 mM dexamethasone; read-out: GR Binding ratio (%). On the procedure:
1. Evaluation Test for Binding Activity to Glucocorticoid Receptor (Hereinafter Referred to as “GR”)
In order to evaluate a binding activity to GR, a receptor competitor assay was carried out by a fluorescence polarization method. In the assay, a GR competitor assay kit (manufactured by Invitrogen, cat No. P2816) was used, and a procedure was carried out according to the protocol attached to the kit. Hereinafter, the specific method will be described.
GR screening buffer: A buffer containing 10 mM potassium phosphate (pH 7.4), 20 mM sodium molybdate (Na2MoO4), 0.1 mM ethylene diamine tetraacetic acid (EDTA), 5 mM dithiothreitol (DTT), 0.1 mM stabilizing peptide and 2% dimethylsulfoxide was prepared.
4×GS1 solution: Fluormone™ GS1, which is a fluorescent glucocorticoid ligand, was diluted with GR screening buffer, whereby a 4 nM solution was prepared.
4×GR solution: Recombinant human GR was diluted with GR screening buffer, whereby a 16 nM solution was prepared.
After a test compound was dissolved in dimethylsulfoxide, the resulting solution was diluted with GR screening buffer, whereby a 20 μM test compound solution was prepared.
1) The test compound solution was added in an amount of 25 μL into each well of a 96-well plate, and then, 4×GS1 solution and 4×GR solution were added in an amount of 12.5 μL into each well, respectively.
2) The plate was incubated in a dark place at room temperature for 2 to 4 hours.
3) By using a multimode plate reader, Analyst™ HT (manufactured by LJL Biosystems), fluorescence polarization of each well was measured. As the blank, a well containing GR screening buffer in place of the test compound and 4×GS1 solution was used.
4) The same procedure as that in the above 1) to 3) was carried out except that GR screening buffer was used in place of the test compound solution, and the obtained result was taken as the negative control.
5) The same procedure as that in the above 1) to 3) was carried out except that 2 mM dexamethasone was used in place of the test compound solution, and the obtained result was taken as the positive control.
A GR binding ratio (%) was calculated from the following equation.
GR binding ratio (%)=100×[1-(fluorescence polarization of test compound solution-fluorescence polarization of positive control solution)/(fluorescence polarization of negative control solution—fluorescence polarization of positive control solution)]
For orientation: Polarisation of emitted light reports the rotation of a fluorescent probe.

Turning to `COc1cc(OC(=O)c2ccccc2OC(C)=O)ccc1-c1ccc2c(c1COc1cc(F)ccc1C)N(C)C(=O)C(C)(C)N2` [Compound 15-4], the inhibition at 10 µM came out at 98%.

With `C=CCN1C(=O)C(C)(C)Nc2ccc(-c3cc(F)ccc3OC)c(COC(=O)c3ccc(C)cc3)c21` [Compound 5-19], the inhibition at 10 µM worked out at 100%.

As to `COc1cc(OC(=O)c2ccccc2SC)ccc1-c1ccc2c(c1COC(=O)c1ccc(C)s1)N(C)C(=O)C(C)(C)N2` [Compound 15-24], the inhibition at 10 µM turned out to be 94%.

As to `COc1ccc(C)cc1NCc1c(-c2ccc(F)cc2OC)ccc2c1N(C)C(=O)C(C)(C)N2` [Compound 4-5], the inhibition at 10 µM turned out to be 100%.

Regarding `COc1ccc(C(=O)OCc2c(-c3ccc(OC(=O)c4ccccc4C)cc3OC)ccc3c2N(C)C(=O)C(C)(C)N3)cc1` [Compound 5-21], the inhibition at 10 µM came to 100%.

As for `Cc1ccc(F)cc1OCc1c(-c2ccccc2Cl)ccc2c1N(C)C(=O)C(C)(C)N2` [Compound 6-4], the inhibition at 10 µM stood at 98%.

Turning to `COc1ccc(Cl)cc1-c1ccc2c(c1COc1cc(F)ccc1C)N(C)C(=O)C(C)(C)N2` [Compound 6-15], the inhibition at 10 µM turned out to be 100%.

As for `COc1ccc(Cl)cc1-c1ccc2c(c1CNc1ccccc1C(C)C)N(C)C(=O)C(C)(C)N2` [Compound 4-10], the inhibition at 10 µM amounted to 100%.

Regarding `COc1ccc([N+](=O)[O-])cc1OCc1c(-c2ccc(F)cc2OC)ccc2c1N(C)C(=O)C(C)(C)N2` [Compound 3-16], the inhibition at 10 µM stood at 100%.

In the case of `COc1cc(OC(=O)c2ccccc2Cl)ccc1-c1ccc2c(c1COc1cc(F)ccc1C)N(C)C(=O)C(C)(C)N2` [Compound 14-4], the inhibition at 10 µM was determined as 100%.

As for `COc1cc(OC(=O)c2ccccc2SC)ccc1-c1ccc2c(c1COc1cc(F)ccc1C)N(C)C(=O)C(C)(C)N2` [Compound 15-6], the inhibition at 10 µM was 100%.

With `COc1cc(F)ccc1-c1ccc2c(c1COc1cc(Cl)ccc1C)N(C)C(=O)C(C)(C)N2` [Compound 3-15], the inhibition at 10 µM came to 100%.

`COc1cc(OC(=O)c2cocn2)ccc1-c1ccc2c(c1COc1cc(F)ccc1C)N(C)C(=O)C(C)(C)N2` [Compound 15-11]: the inhibition at 10 µM is 100%.

In the case of `COc1cc(F)ccc1-c1ccc2c(c1COC(=O)c1ccc(C)s1)N(C)C(=O)C(C)(C)N2` [Compound 2-9], the inhibition at 10 µM is 99%.

Turning to `COc1cc(NC(=O)c2ccncc2)ccc1-c1ccc2c(c1COc1cc(F)ccc1C)N(C)C(=O)C(C)(C)N2` [Compound 14-21, 8-(5-fluoro-2-methylphenoxymethyl)-7-[2-methoxy-4-(pyridin-4-ylcarbonylamino)phenyl]-1,3,3-trimethyl-3,4-dihydro-1H-quinoxalin-2-one], the inhibition at 10 µM was determined as 100%.

In the case of `COc1cc(NC(=O)c2ccccc2Cl)ccc1-c1ccc2c(c1COc1cc(F)ccc1C)N(C)C(=O)C(C)(C)N2` [Compound 14-22], the inhibition at 10 µM turned out to be 100%.

Consider `COc1cc(O)ccc1-c1ccc2c(c1COC(=O)c1ccc(C)s1)N(C)C(=O)C(C)(C)N2` [Compound 13-2, 7-(4-Hydroxy-2-methoxyphenyl)-8-(5-methylthiophen-2-ylcarbonyloxymethyl)-1,3,3-trimethyl-3,4-dihydro-1H-quinoxalin-2-one], for which the inhibition at 10 µM worked out at 91%.

On to `COc1cc(OC(=O)c2cccnc2OC)ccc1-c1ccc2c(c1COc1cc(F)ccc1C)N(C)C(=O)C(C)(C)N2` [Compound 15-22], for which the inhibition at 10 µM was 100%.

Take `COc1ccc([N+](=O)[O-])cc1-c1ccc2c(c1COc1cc(F)ccc1C)N(C)C(=O)C(C)(C)N2` [Compound 6-27, 8-(5-fluoro-2-methylphenoxymethyl)-7-(2-methoxy-5-nitrophenyl)-1,3,3-trimethyl-3,4-dihydro-1H-quinoxalin-2-one]: the inhibition at 10 µM worked out at 100%.

Turning to `CSc1ccccc1-c1ccc2c(c1COc1cc(F)ccc1C)N(C)C(=O)C(C)(C)N2` [Compound 6-10], the inhibition at 10 µM stood at 100%.

For `COc1cc(OC(=O)c2ccoc2)ccc1-c1ccc2c(c1COc1cc(F)ccc1C)N(C)C(=O)C(C)(C)N2` [Compound 14-11], the inhibition at 10 µM was determined as 100%.

Take `CCN1C(=O)C(C)(C)Nc2ccc(-c3cc(F)ccc3OC)c(COC(=O)c3ccc(C)cc3)c21` [Compound 5-18]: the inhibition at 10 µM is 100%.

Consider `COc1cc(OC(=O)c2ccccc2C)ccc1-c1ccc2c(c1CNc1cc(F)ccc1C)N(C)C(=O)C(C)(C)N2` [Compound 21-22, 8-(5-Fluoro-2-methylphenylaminomethyl)-7-[2-methoxy-4-(2-methylbenzoyloxy)phenyl]-1,3,3-trimethyl-3,4-dihydro-1H-quinoxalin-2-one], for which the inhibition at 10 µM amounted to 100%.

Consider `COc1ccc(C(=O)Oc2ccc(-c3ccc4c(c3COc3cc(F)ccc3C)N(C)C(=O)C(C)(C)N4)c(OC)c2)cc1` [Compound 14-30], for which the inhibition at 10 µM turned out to be 100%.

As for `COc1cc(OC(=O)c2ccccc2C)ccc1-c1ccc2c(c1COC(=O)c1cccc(F)c1)N(C)C(=O)C(C)(C)N2` [Compound 5-24], the inhibition at 10 µM worked out at 100%.

Take `COc1ccc(Cl)cc1-c1ccc2c(c1CNc1cc(F)ccc1C)N(C)C(=O)C(C)(C)N2` [Compound 4-7]: the inhibition at 10 µM came to 100%.

On to `COc1ccc(C(F)(F)F)cc1-c1ccc2c(c1COc1cc(F)ccc1C)N(C)C(=O)C(C)(C)N2` [Compound 6-19], for which the inhibition at 10 µM turned out to be 100%.

Regarding `COc1cc(N)ccc1-c1ccc2c(c1COc1cc(F)ccc1C)N(C)C(=O)C(C)(C)N2` [Compound 8-2], the inhibition at 10 µM amounted to 100%.

In the case of `COc1cc(OC(=O)c2ccccc2C)ccc1-c1ccc2c(c1COc1cc(F)ccc1C)N(C)C(=O)C(C)(C)N2` [Compound 14-2], the inhibition at 10 µM stood at 100%.

As for `COc1ccc(Cl)cc1-c1ccc2c(c1COc1ccccc1CCO)N(C)C(=O)C(C)(C)N2` [Compound 3-10], the inhibition at 10 µM worked out at 100%.

On to `COc1cc(OC(=O)Nc2ccccc2)ccc1-c1ccc2c(c1COC(=O)c1ccc(C)s1)N(C)C(=O)C(C)(C)N2` [Compound 17-16, 7-(2-Methoxy-4-phenylaminocarbonyloxyphenyl)-8-(5-methylthiophen-2-ylcarbonyloxymethyl)-1,3,3-trimethyl-3,4-dihydro-1H-quinoxalin-2-one], for which the inhibition at 10 µM was determined as 88%.

For `COC(=O)c1cccc(C(=O)Oc2ccc(-c3ccc4c(c3COc3cc(F)ccc3C)N(C)C(=O)C(C)(C)N4)c(OC)c2)c1` [Compound 15-1, 8-(5-Fluoro-2-methylphenoxymethyl)-7-[2-methoxy-4-(3-methoxycarbonylbenzoyloxy)phenyl]-1,3,3-trimethyl-3,4-dihydro-1H-quinoxalin-2-one], the inhibition at 10 µM turned out to be 100%.

In the case of `COc1cccc(F)c1-c1ccc2c(c1COc1cc(F)ccc1C)N(C)C(=O)C(C)(C)N2` [Compound 6-23], the inhibition at 10 µM came out at 98%.

On to `COc1cc(OC(=O)c2ccc(C)nc2)ccc1-c1ccc2c(c1COc1cc(F)ccc1C)N(C)C(=O)C(C)(C)N2` [Compound 15-9], for which the inhibition at 10 µM stood at 100%.

Turning to `COc1cc(OC(=O)N(C)C)ccc1-c1ccc2c(c1COc1cc(F)ccc1C)N(C)C(=O)C(C)(C)N2` [Compound 18-2, 7-(4-Dimethylaminocarbonyloxy-2-methoxyphenyl)-8-(5-fluoro-2-methylphenoxymethyl)-1,3,3-trimethyl-3,4-dihydro-1H-quinoxalin-2-one], the inhibition at 10 µM turned out to be 99%.

Consider `COc1cc(NC(=O)Oc2ccccc2)ccc1-c1ccc2c(c1COc1cc(F)ccc1C)N(C)C(=O)C(C)(C)N2` [Compound 14-37], for which the inhibition at 10 µM amounted to 93%.
